Patent publication US12643867B2, “Compositions and uses thereof” (University of Virginia Patent Foundation, priority 2017, dated 2026)

Legend:
[1] = biological target: T1, KCC2D (Calcium/calmodulin-dependent protein kinase type II delta chain) (Homo sapiens, UniProt Q13557); experiment: SILAC LC-MS ATP acyl phosphate probe competition, native kinases in HEK293T; format: binding; settings: site Lys1; ATP 1 mM; Ketanserin, Ritanserin 100 μM; RF001 1 mM
T1 construct: measured against >50 native kinases quantified in HEK293T soluble proteomes; endogenous in cells; host or cells: HEK293T soluble proteome
T1 sequence (Q13557 whole entry): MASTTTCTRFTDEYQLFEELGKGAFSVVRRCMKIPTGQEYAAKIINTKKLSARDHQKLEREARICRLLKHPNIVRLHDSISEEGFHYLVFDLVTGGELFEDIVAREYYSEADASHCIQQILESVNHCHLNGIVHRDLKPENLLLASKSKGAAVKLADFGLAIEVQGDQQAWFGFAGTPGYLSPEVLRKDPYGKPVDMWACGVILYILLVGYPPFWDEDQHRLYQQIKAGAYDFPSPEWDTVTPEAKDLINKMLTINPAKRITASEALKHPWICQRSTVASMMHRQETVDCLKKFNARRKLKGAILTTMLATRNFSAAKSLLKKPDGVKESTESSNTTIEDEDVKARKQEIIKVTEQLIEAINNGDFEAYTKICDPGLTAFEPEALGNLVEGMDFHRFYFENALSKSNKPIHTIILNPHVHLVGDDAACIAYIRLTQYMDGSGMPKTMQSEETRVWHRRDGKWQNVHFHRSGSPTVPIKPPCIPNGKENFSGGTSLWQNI
Summary of the method: (§1)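 HEK293T SILAC proteomes, 2 mg/ml; heavy + compound (from 50× DMSO stock), light + DMSO, 30 min, 25° C. Mix 1:1, MeOH/CHCl3 extraction, DTT/iodoacetamide, trypsin/Lys-C 3 h 37° C. Avidin enrichment of desthiobiotin-modified peptides; Orbitrap Q Exactive Plus LC-MS, top-10 DDA.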

[2] = biological target: T2, FER (Proto-oncogene tyrosine-protein kinase FER) (Homo sapiens, UniProt P16591); experiment: as above; format: binding; settings: site Lys1 (K591); ATP 1 mM; Ketanserin, Ritanserin 100 μM; RF001 1 mM
T2 construct: measured against >50 native kinases quantified in HEK293T soluble proteomes; endogenous in cells; host or cells: HEK293T soluble proteome
T2 sequence (P16591 whole entry): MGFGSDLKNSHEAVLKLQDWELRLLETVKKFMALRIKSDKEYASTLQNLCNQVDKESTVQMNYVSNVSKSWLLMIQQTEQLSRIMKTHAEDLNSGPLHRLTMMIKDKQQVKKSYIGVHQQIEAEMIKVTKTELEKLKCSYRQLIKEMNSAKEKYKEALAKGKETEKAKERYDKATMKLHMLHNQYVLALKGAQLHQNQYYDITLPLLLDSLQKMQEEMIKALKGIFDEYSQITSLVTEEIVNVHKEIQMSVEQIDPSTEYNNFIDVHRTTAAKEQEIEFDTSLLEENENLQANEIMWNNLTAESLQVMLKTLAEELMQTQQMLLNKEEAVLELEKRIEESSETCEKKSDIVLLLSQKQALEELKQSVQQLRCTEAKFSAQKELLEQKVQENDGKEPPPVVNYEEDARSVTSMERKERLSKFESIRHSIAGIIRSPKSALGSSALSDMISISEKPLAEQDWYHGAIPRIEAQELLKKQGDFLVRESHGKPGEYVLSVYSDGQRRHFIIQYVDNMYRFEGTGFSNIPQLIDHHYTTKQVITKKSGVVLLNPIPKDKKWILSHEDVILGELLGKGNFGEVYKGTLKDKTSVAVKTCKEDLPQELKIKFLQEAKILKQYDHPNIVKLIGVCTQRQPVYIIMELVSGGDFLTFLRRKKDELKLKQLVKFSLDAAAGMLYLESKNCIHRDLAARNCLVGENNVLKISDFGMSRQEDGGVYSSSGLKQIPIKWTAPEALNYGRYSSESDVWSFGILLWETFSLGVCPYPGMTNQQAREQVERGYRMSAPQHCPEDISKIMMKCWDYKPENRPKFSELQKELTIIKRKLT
Summary of the method: as §1

SMILES	SILAC ratio, KCC2D probe-modified peptide [1]	SILAC ratio, FER probe-modified peptide [2]
O=C(c1ccc(F)cc1)C1CCN(CCn2c(=O)[nH]c3ccccc3c2=O)CC1 [Ketanserin]	1.5	1.4
Fc1ccc(C(=C2CCNCC2)c2ccc(F)cc2)cc1 [RF001, 4-(Bis(4-fluorophenyl)methylene) piperidine]	1.2	1.2
Cc1nc2sccn2c(=O)c1CCN1CCC(=C(c2ccc(F)cc2)c2ccc(F)cc2)CC1 [Ritanserin]	2.3	7.9
